Experimental data as given in patent US20260317299A1, “PIKFYVE PROTEIN KINASE DEGRADATION AGENT AND USE THEREOF” (Shanghai Institute of Organic Chemistry, Chinese Academy of …, priority 2023, published 2026).

biological target: T1, PIKfyve (Homo sapiens, UniProt Q9Y2I7); experiment: Degradation of PIKfyve proteins in VCaP tumor cells (24 h, Western blot); type: cell-based; settings: 37° C., compared with DMSO control, WB, read-out: DC50 (concentration that achieves 50% degradation activity)
T1 construct: endogenous in cells; host or cells: VCaP
T1 sequence (Q9Y2I7 whole entry): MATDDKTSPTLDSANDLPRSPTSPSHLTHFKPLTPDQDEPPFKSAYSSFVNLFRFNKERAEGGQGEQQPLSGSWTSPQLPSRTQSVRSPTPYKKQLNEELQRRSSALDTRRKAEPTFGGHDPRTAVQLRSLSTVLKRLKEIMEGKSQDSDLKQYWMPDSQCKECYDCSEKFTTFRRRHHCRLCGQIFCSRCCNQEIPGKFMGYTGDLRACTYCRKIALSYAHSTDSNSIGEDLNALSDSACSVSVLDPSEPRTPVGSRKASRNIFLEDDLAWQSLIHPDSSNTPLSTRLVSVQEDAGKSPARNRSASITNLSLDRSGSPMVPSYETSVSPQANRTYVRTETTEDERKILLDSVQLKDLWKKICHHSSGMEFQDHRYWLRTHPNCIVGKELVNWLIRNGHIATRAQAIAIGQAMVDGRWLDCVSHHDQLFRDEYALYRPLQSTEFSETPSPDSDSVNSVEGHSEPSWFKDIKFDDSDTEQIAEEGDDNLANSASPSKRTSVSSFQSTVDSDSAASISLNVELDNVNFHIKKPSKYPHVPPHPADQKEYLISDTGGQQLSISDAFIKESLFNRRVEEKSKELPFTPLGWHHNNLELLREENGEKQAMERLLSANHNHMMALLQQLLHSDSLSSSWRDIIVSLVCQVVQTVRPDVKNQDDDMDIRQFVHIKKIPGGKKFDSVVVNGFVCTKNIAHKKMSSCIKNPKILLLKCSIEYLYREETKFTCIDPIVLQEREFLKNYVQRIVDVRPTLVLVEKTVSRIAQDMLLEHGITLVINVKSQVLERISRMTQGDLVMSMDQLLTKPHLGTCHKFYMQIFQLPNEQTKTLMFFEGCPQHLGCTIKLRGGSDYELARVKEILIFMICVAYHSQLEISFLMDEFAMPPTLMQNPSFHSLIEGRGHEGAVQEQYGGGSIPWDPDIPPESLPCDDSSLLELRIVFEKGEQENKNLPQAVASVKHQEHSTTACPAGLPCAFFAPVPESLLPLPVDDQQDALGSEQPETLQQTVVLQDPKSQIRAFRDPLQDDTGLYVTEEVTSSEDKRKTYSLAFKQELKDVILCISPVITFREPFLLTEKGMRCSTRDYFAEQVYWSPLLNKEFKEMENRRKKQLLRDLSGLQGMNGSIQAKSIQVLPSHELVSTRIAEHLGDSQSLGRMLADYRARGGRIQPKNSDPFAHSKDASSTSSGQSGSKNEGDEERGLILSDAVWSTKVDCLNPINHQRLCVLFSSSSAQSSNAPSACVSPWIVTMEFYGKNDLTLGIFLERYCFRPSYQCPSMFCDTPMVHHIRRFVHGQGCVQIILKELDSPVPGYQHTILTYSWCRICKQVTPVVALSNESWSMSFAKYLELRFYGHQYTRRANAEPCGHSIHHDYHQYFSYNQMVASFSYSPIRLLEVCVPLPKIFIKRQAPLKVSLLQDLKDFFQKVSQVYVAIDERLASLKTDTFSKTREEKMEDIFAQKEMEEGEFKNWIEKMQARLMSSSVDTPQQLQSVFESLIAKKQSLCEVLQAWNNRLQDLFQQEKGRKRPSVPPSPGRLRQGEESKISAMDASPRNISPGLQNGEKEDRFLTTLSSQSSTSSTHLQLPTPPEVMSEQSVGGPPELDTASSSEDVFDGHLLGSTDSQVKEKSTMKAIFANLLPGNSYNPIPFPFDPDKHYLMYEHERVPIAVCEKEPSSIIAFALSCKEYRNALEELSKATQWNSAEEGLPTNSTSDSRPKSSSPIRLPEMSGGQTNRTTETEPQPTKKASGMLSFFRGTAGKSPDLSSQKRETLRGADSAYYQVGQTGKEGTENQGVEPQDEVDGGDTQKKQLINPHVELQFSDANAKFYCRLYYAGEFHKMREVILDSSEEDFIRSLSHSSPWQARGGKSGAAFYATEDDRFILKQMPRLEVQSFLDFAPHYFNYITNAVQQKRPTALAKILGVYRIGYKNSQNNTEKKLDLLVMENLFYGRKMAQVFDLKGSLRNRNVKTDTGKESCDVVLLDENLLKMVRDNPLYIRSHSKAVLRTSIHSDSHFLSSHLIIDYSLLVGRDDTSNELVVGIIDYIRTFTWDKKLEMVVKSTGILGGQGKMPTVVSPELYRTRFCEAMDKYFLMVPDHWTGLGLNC
Summary of the method: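 VCaP cells (5×10^6 cells/ml) treated with a range of compound concentrations at 37° C for 24 h, then lysed in SDS buffer. PIKfyve level measured by Western blot with GAPDH as loading control and ECL detection. DC50 is the concentration giving 50% degradation relative to DMSO control.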

| DC50 [nM] | SMILES |
| --- | --- |
| 1 to 100 | Cc1cccc(-c2ccn(-c3cc(N4CCOCC4)nc(OCCc4ccc(-c5ccc(NC(=O)C[C@H](NC(=O)[C@@H]6C[C@@H](O)CN6C(=O)[C@@H](NC(=O)C6(F)CC6)C(C)(C)C)c6ccc(-c7scnc7C)cc6)cc5)cc4)n3)n2)c1 [Example 87, (2S,4R)-1-((S)-2-(1-fluorocyclopropane-1-carboxamido)-3,3-dimethylbutanoyl)-4-hydroxy-N—((S)-1-(4-(4-methylthiazol-5-yl)phenyl)-3-((4′-(2-((4-morpholino-6-(3-(m-tolyl)-1H-pyrazol-1-yl)pyrimidin-2-yl)oxy)ethyl)-[1,1′-biphenyl]-4-yl)amino)-3-oxopropyl)pyrrolidine-2-carboxamide] |
| 1 to 100 | Cc1cccc(-c2ccn(-c3cc(N4CCOCC4)nc(OCCc4ccc(C#CC5CCN(C(=O)CCCC[C@H](NC(=O)[C@@H]6C[C@@H](O)CN6C(=O)[C@@H](NC(=O)C6(F)CC6)C(C)(C)C)c6ccc(-c7scnc7C)cc6)CC5)cc4)n3)n2)c1 [Example 72, (2S,4R)-1-((S)-2-(1-fluorocyclopropane-1-carboxamido)-3,3-dimethylbutanoyl)-4-hydroxy-N—((S)-1-(4-(4-methylthiazol-5-yl)phenyl)-6-(4-((4-(2-((4-morpholino-6-(3-(m-tolyl)-1H-pyrazol-1-yl)pyrimidin-2-yl)oxy)ethyl)phenyl)ethynyl)piperidin-1-yl)-6-oxohexyl) pyrrolidine-2-carboxamide] |
| 1 to 100 | Cc1cccc(-c2ccn(-c3cc(N4CCOCC4)nc(OC4CCN(c5ccc(NC(=O)CCCC[C@H](NC(=O)[C@@H]6C[C@@H](O)CN6C(=O)[C@@H](NC(=O)C6(F)CC6)C(C)(C)C)c6ccc(-c7scnc7C)cc6)cc5)CC4)n3)n2)c1 [Example 69, (2S,4R)-1-((S)-2-(1-fluorocyclopropane-1-carboxamido)-3,3-dimethylbutanoyl)-4-hydroxy-N—((S)-1-(4-(4-methylthiazol-5-yl)phenyl)-6-((4-(4-((4-morpholino-6-(3-(m-tolyl)-1H-pyrazol-1-yl)pyrimidin-2-yl)oxy)piperidin-1-yl)phenyl)amino)-6-oxohexyl)pyrrolidine-2-carboxamide] |
| 1 to 100 | Cc1cccc(-c2ccn(-c3cc(N4CCOCC4)nc(OC4CCN(c5ccc(NC(=O)NC6CN(C(=O)C[C@H](NC(=O)[C@@H]7C[C@@H](O)CN7C(=O)[C@@H](NC(=O)C7(F)CC7)C(C)(C)C)c7ccc(-c8scnc8C)cc7)C6)cc5)CC4)n3)n2)c1 [Example 80, (2S,4R)-1-((S)-2-(1-fluorocyclopropane-1-carboxamido)-3,3-dimethylbutanoyl)-4-hydroxy-N—((S)-1-(4-(4-methylthiazol-5-yl)phenyl)-3-(3-(3-(4-(4-((4-morpholino-6-(3-(m-tolyl)-1H-pyrazol-1-yl)pyrimidin-2-yl)oxy)piperidin-1-yl)phenyl)ureido)azetidin-1-yl)-3-oxopropyl)pyrrolidine-2-carboxamide] |
| 1 to 100 | Cc1cccc(-c2ccn(-c3cc(N4CCOCC4)nc(OC4CCN(c5ccc(NC(=O)C[C@H](NC(=O)[C@@H]6C[C@@H](O)CN6C(=O)[C@@H](NC(=O)C6(F)CC6)C(C)(C)C)c6ccc(-c7scnc7C)cc6)cc5)CC4)n3)n2)c1 [Example 67, (2S,4R)-1-((S)-2-(1-fluorocyclopropane-1-carboxamido)-3,3-dimethylbutanoyl)-4-hydroxy-N—((S)-1-(4-(4-methylthiazol-5-yl)phenyl)-3-((4-(4-((4-morpholino-6-(3-(m-tolyl)-1H-pyrazol-1-yl)pyrimidin-2-yl)oxy)piperidin-1-yl)phenyl)amino)-3-oxopropyl)pyrrolidine-2-carboxamide] |
| 1 to 100 | Cc1cccc(-c2ccn(-c3cc(N4CCOCC4)nc(OCCc4ccc(N5CCN(C(=O)C[C@H](NC(=O)[C@@H]6C[C@@H](O)CN6C(=O)[C@@H](NC(=O)C6(F)CC6)C(C)(C)C)c6ccc(-c7scnc7C)cc6)CC5)cc4)n3)n2)c1 [Example 75, (2S,4R)-1-((S)-2-(1-fluorocyclopropane-1-carboxamido)-3,3-dimethylbutanoyl)-4-hydroxy-N—((S)-1-(4-(4-methylthiazol-5-yl)phenyl)-3-(4-(4-(2-((4-morpholino-6-(3-(m-tolyl)-1H-pyrazol-1-yl)pyrimidin-2-yl)oxy)ethyl)phenyl)piperazin-1-yl)-3-oxopropyl)pyrrolidine-2-carboxamide] |
| 1 to 100 | Cc1cccc(-c2ccn(-c3cc(N4CCOCC4)nc(OC4CCN(c5ccc(NC(=O)NC6CCN(C(=O)CC[C@H](NC(=O)[C@@H]7C[C@@H](O)CN7C(=O)[C@@H](NC(=O)C7(F)CC7)C(C)(C)C)c7ccc(-c8scnc8C)cc7)CC6)cc5)CC4)n3)n2)c1 [Example 83, (2S,4R)-1-((S)-2-(1-fluorocyclopropane-1-carboxamido)-3,3-dimethylbutanoyl)-4-hydroxy-N—((S)-1-(4-(4-methylthiazol-5-yl)phenyl)-4-(4-(3-(4-(4-((4-morpholino-6-(3-(m-tolyl)-1H-pyrazol-1-yl)pyrimidin-2-yl)oxy)piperidin-1-yl)phenyl)ureido)piperidin-1-yl)-4-oxobutyl)pyrrolidine-2-carboxamide] |

Second part, the compound before the results:

| SMILES | DC50 [nM] |
| --- | --- |
| Cc1cccc(/C=N/Nc2cc(N3CCOCC3)nc(OCCc3ccc(NC(=O)CCCNC(=O)CC[C@H](NC(=O)[C@@H]4C[C@@H](O)CN4C(=O)[C@@H](NC(=O)C4(F)CC4)C(C)(C)C)c4ccc(-c5scnc5C)cc4)cc3)n2)c1 [Example 51, (2S,4R)-1-((S)-2-(1-fluorocyclopropane-1-carboxamido)-3,3-dimethylbutanoyl)-4-hydroxy-N—((S)-4-((4-((4-(2-((4-(2-((E)-3-methylbenzylidene)hydrazino)-6-morpholinopyrimidin-2-yl)oxy)ethyl)phenyl)amino)-4-oxobutyl)amino)-1-(4-(4-methylthiazol-5-yl)phenyl)4-oxobutyl)pyrrolidine-2-carboxamide] | 1 to 100 |
| Cc1cccc(/C=N/Nc2cc(N3CCOCC3)nc(OCCc3ccc(NC(=O)CCCCC(=O)N[C@H](C(=O)N4C[C@H](O)C[C@H]4C(=O)NCc4ccc(-c5scnc5C)cc4)C(C)(C)C)cc3)n2)c1 [Example 38, N^1—((S)-1-((2S,4R)-4-hydroxy-2-((4-(4-methylthiazol-5-yl)benzyl)carbamoyl)pyrrolidine-1-yl)-3,3-dimethyl-1-oxobutan-2-yl)-N^6-(4-(2-((4-(2-((E)-3-methylbenzylidene) hydrazino)-6-morpholinopyrimidin-2-yl)oxy)ethyl)phenyl)adipamide] | 1 to 100 |
| Cc1cccc(/C=N/Nc2cc(N3CCOCC3)nc(OCCc3ccc(NC(=O)CCCCCCCCC(=O)Nc4ccc5c(c4)C(=O)N(C4CCC(=O)NC4=O)C5)cc3)n2)c1 (stereo not drawn) [Example 31, (E)-N^1-(2-(2,6-dioxopiperidin-3-yl)-3-oxoisoindol-5-yl)-N^10-(4-(2-((4-(2-(3-methylbenzylidene)hydrazino)-6-morpholinopyrimidin-2-yl)oxy)ethyl)phenyl)decanediamide] | 100 to 10000 |
| Cc1cccc(/C=N/Nc2cc(N3CCOCC3)nc(OCCc3ccc(NC(=O)COc4cccc5c4C(=O)N(C4CCC(=O)NC4=O)C5=O)cc3)n2)c1 (stereo not drawn) [Example 1, (E)-2-((2-(2,6-dioxopiperidin-3-yl)-1,3-dioxoisoindolin-4-yl)oxy)-N-(4-(2-((4-(2-(3-methylbenzylidene)hydrazino)-6-morpholinopyrimidin-2-yl)oxy)ethyl)phenyl)acetamide] | 100 to 10000 |
| Cc1cccc(/C=N/Nc2cc(N3CCOCC3)nc(OCCc3ccc(NC(=O)COc4cc(-c5scnc5C)ccc4CNC(=O)[C@@H]4C[C@@H](O)CN4C(=O)[C@@H](NC(=O)C4(F)CC4)C(C)(C)C)cc3)n2)c1 [Example 53, (2S,4R)-1-((S)-2-(1-fluorocyclopropane-1-carboxamido)-3,3-dimethylbutanoyl)-4-hydroxy-N-(2-(2-((4-(2-((4-(2-((E)-3-methylbenzylidene)hydrazino)-6-morpholinopyrimidin-2-yl)oxy)ethyl)phenyl)amino)-2-oxoethoxy)-4-(4-methylthiazol-5-yl)benzyl)pyrrolidine-2-carboxamide] | 1 to 100 |
| Cc1cccc(/C=N/Nc2cc(N3CCOCC3)nc(OCCc3ccc(NC(=O)CCCCCCC(=O)N[C@H](C(=O)N4C[C@H](O)C[C@H]4C(=O)NCc4ccc(-c5scnc5C)cc4)C(C)(C)C)cc3)n2)c1 [Example 39, N^1—((S)-1-((2S,4R)-4-hydroxy-2-((4-(4-methylthiazol-5-yl)benzyl)carbamoyl)pyrrolidine-1-yl)-3,3-dimethyl-1-oxobutan-2-yl)-N^8-(4-(2-((4-(2-((E)-3-methylbenzylidene) hydrazino)-6-morpholinopyrimidin-2-yl)oxy)ethyl)phenyl)octanediamide] | 1 to 100 |
| Cc1cccc(/C=N/Nc2cc(N3CCOCC3)nc(OCCc3ccc(NC(=O)CCCCCCCCCCC(=O)Nc4cccc5c4C(=O)N(C4CCC(=O)NC4=O)C5)cc3)n2)c1 (stereo not drawn) [Example 36, (E)-N^1-(2-(2,6-dioxopiperidin-3-yl)-3-oxoisoindolin-4-yl)-N^12-(4-(2-((4-(2-(3-methylbenzylidene)hydrazino)-6-morpholinopyrimidin-2-yl)oxy)ethyl)phenyl)dodecanediamide] | 100 to 10000 |
| Cc1cccc(/C=N/Nc2cc(N3CCOCC3)nc(OCCc3ccc(NC(=O)CNC(=O)CC[C@H](NC(=O)[C@@H]4C[C@@H](O)CN4C(=O)[C@@H](NC(=O)C4(F)CC4)C(C)(C)C)c4ccc(-c5scnc5C)cc4)cc3)n2)c1 [Example 50, (2S,4R)-1-((S)-2-(1-fluorocyclopropane-1-carboxamido)-3,3-dimethylbutanoyl)-4-hydroxy-N—((S)-4-((2-((4-(2-((4-(2-((E)-3-methylbenzylidene)hydrazino)-6-morpholinopyrimidin-2-yl)oxy)ethyl)phenyl)amino)-2-oxoethyl)amino)-1-(4-(4-methylthiazol-5-yl)phenyl)4-oxobutyl)pyrrolidine-2-carboxamide] | 1 to 100 |
